# Data: patent publication US11008286B2, “Amino mercaptan compound and preparation method therefor and use thereof in protection against radiation” (Institute of Radiation Medicine Chinese Academy of Medical …, priority 2016, dated 2021)
# Structures can show the parent of a compound that is named as a salt. Where two headings read alike, the source gives them in different places. Where a SMILES comes first, the peptide text is derived from it. [ ]: non-standard residue; d: D form.
# How the values were obtained:
# C57BL/6 mice = assay: Example A: 30-day survival of mice after whole-body 137Cs γ-ray irradiation; format: in vivo; settings: 200 mg/kg intraperitoneally
# Protocol: Material: The gamma ray irradiation device is a ^137Cs irradiator, with a dose rate of 0.7Gy/min. C57BL/6 mice, male, weighing 21-22 g, purchased from Beijing HFK Bioscience Co. Ltd., certificate number SCXK (Beijing) 2014-0004, grouped as: no irradiation group, irradiation and blank solvent group, irradiation and administration group, with 5 mice in each group.
# The 30-day survival of the mice in each group was observed, the survival rates were calculated, the body weights were followed, and the organs and white blood cells of mice in each group were compared after 30 days.
# Results: At the same administration dose of the four compounds (200 mg/kg, one dose at 24 hours before irradiation and one dose at 30 minutes before irradiation), one-time whole body irradiation with 6.8Gy, 7.2Gy and 7.5Gy ^137Cs gamma rays was performed, respectively, compared with the radiation and blank solvent group. The 30-day survival rate of mice was 100% when compound 1 was used in the cases of irradiations of 6.8Gy and 7.2Gy, respectively. The effects of normal control group and compound 1, compound 2, compound 3 and compound 4 on organs and leukocytes in mice 30 days after irradiation with 7.2Gy are shown in FIG. 4. The effects of normal control group and compound 1 on organs and leukocytes in mice 30 days after irradiation with 6.8Gy and 7.5Gy, respectively, are shown in FIGS. 2 and 6.
# C57 male mice [1] = assay: Example G: effect of stereoisomerism on survival rate of mice under 7.5Gy irradiation; format: in vivo; settings: 200 mg/kg IP 30 min before irradiation; for deaths: 9 mice per group
# From the text: Laboratory animals: C57 male mice, 19-21 g, purchased from Beijing HFK Bioscience Co. Ltd., license number SCXK (Beijing), 9 mice in each group.
# C57 male mice [2] = settings: for survival rates compared with amifostine: absorbed dose 6.8Gy and 7.2Gy
# Protocol: Laboratory animals: C57 male mice, 8-10 weeks old, 20-22 g, were divided into 4 groups, 5 or 10 or 15 or 20 or 25 mice in each group.
# Observation index: The death and weight of the mice were recorded, and the survival rate was calculated on the 30th day.
# C57 male mice [3] = format: in vivo; settings: no irradiation, 30-day
# Protocol: Administration and grouping: Each group was intraperitoneally injected with one corresponding dose of amifostine. • Each group was intraperitoneally injected with one corresponding dose of Example 17 (IP).
# The 30-day survival rate of mice in each group was recorded.
# [4] = 6.8Gy, 200 mpk IP 30 min before irradiation, day 30
# [5] = 7.5Gy, 400 mpk IP 90 min before irradiation
# [6] = 7.5Gy, 800 mpk IP 90 min before irradiation
# 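Throughout, for survival rates compared with amifostine: mice aged 8-10 weeks, weighing 20-22 g, with deaths logged and survival rate computed on day 30.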
Structure (SMILES),Survival number/Test number (C57 male mice [1]),Survival rate (C57 male mice [1]),deaths (C57 male mice [1]),"Survival number/Test number (C57 male mice [2]; 7.2Gy, 200 mpk IP, day 30)","Survival rate (C57 male mice [2]; 7.2Gy, 200 mpk IP, day 30)",survival rates compared with amifostine (C57 male mice [2]),other results
"NC(=O)[C@H](CS)NC(=O)[C@@H](N)CS [Example 1, (R)-2-amino-N—((R)-1-amino-3-mercapto-1-oxopropan-2-yl)-3-mercaptopropanamide trifluoroacetate] (H-Cys-Cys-NH2)",1/9,approximately 11%,(8 deaths),6/10,60%,survival rates comparable to those using amifostine,30-day survival rate (C57BL/6 mice; 6.8Gy 137Cs γ rays whole body): 100%; 30-day survival rate (C57BL/6 mice; 7.2Gy 137Cs γ rays whole body): 100%
"NC(=O)[C@@H](CS)NC(=O)[C@@H](N)CS [Example 18, (R)-2-amino-N—((S)-1-amino-3-mercapto-1-oxopropan-2-yl)-3-mercaptopropanamide trifluoroacetate] (H-Cys-[dC]-NH2)",–,–,–,4/5,80%,survival rates comparable to those using amifostine,–
"NC(=O)[C@H](CS)NC(=O)[C@H](N)CS [Example 17, (S)-2-amino-N—((R)-1-amino-3-mercapto-1-oxopropan-2-yl)-3-mercaptopropanamide trifluoroacetate] (H-[dC]-Cys-NH2)",–,–,–,9/10,90%,survival rates comparable to those using amifostine,"Survival number/Test number (C57 male mice [2]; [4]): 5/5; Survival rate (C57 male mice [2]; [4]): 100%; Survival number/Test number (C57 male mice [2]; 7.5Gy, 200 mpk IP, day 30): 0/5; Survival rate (C57 male mice [2]; 7.5Gy, 200 mpk IP, day 30): 0%; Survival number/Test number (C57 male mice [2]; [5]): 0/5; Survival rate (C57 male mice [2]; [5]): 0%; Survival number/Test number (C57 male mice [2]; [6]): 0/5; Survival rate (C57 male mice [2]; [6]): 0%; Survival number/Test number (C57 male mice [3]; 400 mpk IP): 5/5; Survival number/Test number (C57 male mice [3]; 800 mpk IP): 5/5; Survival number/Test number (C57 male mice [3]; 1600 mpk IP): 4/5"
"CNC(=O)C(CS)NC(=O)C(CS)NC(=O)C(CS)NC (racemic) [Example 20, (RS)-3-mercapto-N—((RS)-3-mercapto-1-(((RS)-3-mercapto-1-(methylamino)-1-oxopropan-2-yl)amino)-1-oxopropan-2-yl)-2-(methylamino) propanamide trifluoroacetate]",1/9,–,(8 deaths),–,–,–,–
"N[C@H](CS)C(=O)O [D-Cys, D-cysteine, reference compound]",0/9,–,(9 deaths),–,–,–,–
"CNC(=O)C(CS)NC(=O)C(CS)NC (racemic) [Example 19, 3-mercapto-N-(3-mercapto-1-(methylamino)-1-oxopropan-2-yl)-2-(methylamino) propionamide trifluoroacetate]",2/9,–,(7 deaths),–,–,–,–
"N[C@@H](CS)C(=O)O [L-Cys, L-cysteine, reference compound]",1/9,–,(8 deaths),–,–,–,–
"CNC(=O)[C@H](CS)NC(=O)[C@H](CS)NC [Example 2, (R)-3-mercapto-N—((R)-3-mercapto-1-(methylamino)-1-oxopropan-2-yl)-2-(methylamino) propionamide trifluoroacetate]",4/9,approximately 44%,(5 deaths),10/15,66.67%,survival rates comparable to those using amifostine,–
"CNC(=O)[C@@H](CS)NC(=O)[C@@H](CS)NC(=O)[C@@H](CS)NC [Example 8, (S)-3-mercapto-N—((S)-3-mercapto-1-(((S)-3-mercapto-1-(methylamino)-1-oxopropan-2-yl)amino)-1-oxopropan-2-yl)-2-(methylamino) propanamide]",–,–,–,1/5,20%,survival rates comparable to those using amifostine,–
"NC(=O)[C@H](CS)NC(=O)[C@H](CS)NC(=O)[C@@H](N)CS [Example 3, (R)-2-amino-N—((R)-1-(((R)-1-amino-3-mercapto-1-oxopropan-2-yl)amino)-3-mercapto-1-oxopropan-2-yl)-3-mercaptopropanamide trifluoroacetate] (H-Cys-Cys-Cys-NH2)",2/9,approximately 22%,(7 deaths),10/15,66.67%,survival rates comparable to those using amifostine,–
